According to US7799809B2, “Carboxamide compounds and their use as calpain inhibitors” (Abbott GmbH & Co. KG, priority 2006, dated 2010):

What was measured:
Format in all cases: biochemical
cathepsin K = target: T1, cathepsin K (Homo sapiens, UniProt P43235); test: Cathepsin K enzyme inhibition in vitro (kinetic fluorescence assay); conditions: cathepsin K activated from recombinant human procathepsin K vs calpain I
T1 construct: purchased Calbiochem 342001; host or cells: E. coli
T1 sequence (P43235 115-329): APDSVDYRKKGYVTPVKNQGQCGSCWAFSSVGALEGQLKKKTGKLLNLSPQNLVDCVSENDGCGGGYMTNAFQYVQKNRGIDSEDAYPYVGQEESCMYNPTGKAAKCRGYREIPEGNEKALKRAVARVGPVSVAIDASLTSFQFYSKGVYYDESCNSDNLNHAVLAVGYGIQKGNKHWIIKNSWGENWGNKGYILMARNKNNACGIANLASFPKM

cathepsin L = target: T2, cathepsin L (Homo sapiens, UniProt P07711); test: Cathepsin L enzyme inhibition in vitro (kinetic fluorescence assay); conditions: cathepsin L isolated from human liver vs calpain I
T2 construct: cathepsin L—isolated from human liver (Calbiochem #219402); purchased Calbiochem 219402; host or cells: human liver (tissue-derived)
Summary of the method: (§1)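 cat B 0.25 nM + Z-Phe-Arg-AMC 100 μM; cat L 1 nM + Z-Phe-Arg-AMC 2 μM; cat S 0.5 nM (E. coli-expressed) + Z-Val-Val-Arg-AMC 20 μM. 50 mM MES pH 6.0, 2.5 mM L-Cys, RT. Ex 390/em 460, kinetic; Ki app = Cheng-Prusoff from IC50, mean of 2–4 curves.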

cathepsin B = target: T3, cathepsin B (Homo sapiens, UniProt P07858); test: Cathepsin B enzyme inhibition in vitro (kinetic fluorescence assay); conditions: cathepsin B isolated from human liver vs calpain I
T3 construct: cathepsin B—isolated from human liver (Calbiochem #219362); purchased Calbiochem 219362; host or cells: human liver (tissue-derived)
Summary of the method: as §1

cathepsin S = target: T4, cathepsin S (Homo sapiens, UniProt P25774); test: Cathepsin S enzyme inhibition in vitro (kinetic fluorescence assay); conditions: recombinant human cathepsin S vs calpain I
T4 construct: purchased Calbiochem 219343; host or cells: E. coli
Summary of the method: as §1

T4 sequence (P25774 115-331): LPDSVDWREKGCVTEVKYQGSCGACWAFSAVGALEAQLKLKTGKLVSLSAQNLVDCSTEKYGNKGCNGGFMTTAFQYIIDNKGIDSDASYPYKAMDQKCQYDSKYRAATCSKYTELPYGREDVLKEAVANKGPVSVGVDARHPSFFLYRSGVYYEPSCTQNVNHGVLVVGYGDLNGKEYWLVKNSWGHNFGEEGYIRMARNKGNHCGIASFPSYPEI
T2 sequence (P07711 114-333): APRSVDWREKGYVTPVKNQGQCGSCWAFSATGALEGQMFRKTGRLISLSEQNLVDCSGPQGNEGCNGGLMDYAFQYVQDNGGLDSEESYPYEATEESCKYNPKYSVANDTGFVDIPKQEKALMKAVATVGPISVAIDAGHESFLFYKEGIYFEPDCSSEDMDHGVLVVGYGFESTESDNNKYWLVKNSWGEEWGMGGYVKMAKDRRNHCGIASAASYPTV

Row | Structure (SMILES) | Sel cat. K: Ki(cathepsin K)/Ki(calpain) ratio (cathepsin K) | Sel cat. L: Ki(cathepsin L)/Ki(calpain) ratio (cathepsin L) | Sel cat. B: Ki(cathepsin B)/Ki(calpain) ratio (cathepsin B) | Sel cat. S: Ki(cathepsin S)/Ki(calpain) ratio (cathepsin S)
1 | COc1ccc(CC(NC(=O)c2cccnc2-n2ccc(-c3ccc(F)cc3OC)n2)C(=O)C(N)=O)cc1 (stereo not drawn) [Example 136, N-(3-Amino-1-{[4-(methyloxy)phenyl]methyl}-2,3-dioxopropyl)-2-{3-[4-fluoro-2-(methyloxy)phenyl]-1H-pyrazol-1-yl}pyridine-3-carboxamide] | ++ (++ means a Ki(cathepsin K)/Ki(calpain) ratio of ≧30) | ++ (++ means a Ki(cathepsin L)/Ki(calpain) ratio of ≧50) | ++ (++ means a Ki(cathepsin B)/Ki(calpain) ratio of ≧30) | ++ (++ means a Ki(cathepsin S)/Ki(calpain) ratio of ≧100)
2 | COc1ccc(CC(NC(=O)c2cccnc2-n2ccc(-c3ccc4c(c3)OC(F)(F)O4)n2)C(=O)C(N)=O)cc1 (stereo not drawn) [Example 137, N-(3-Amino-1-{[4-(methyloxy)phenyl]methyl}-2,3-dioxopropyl)-2-[3-(2,2-difluoro-1,3-benzodioxol-5-yl)-1H-pyrazol-1-yl]pyridine-3-carboxamide] | + (+ means 10≦Ki(cathepsin K)/Ki(calpain)<30) | ++ (++ means a Ki(cathepsin L)/Ki(calpain) ratio of ≧50) | + (+ means 10≦Ki(cathepsin B)/Ki(calpain)<30) | ++ (++ means a Ki(cathepsin S)/Ki(calpain) ratio of ≧100)
3 | COc1cc(Cl)ccc1-c1ccn(-c2ncccc2C(=O)NC(Cc2ccccc2)C(=O)C(N)=O)n1 (stereo not drawn) [Example 139, N-[3-Amino-2,3-dioxo-1-(phenylmethyl)propyl]-2-{3-[4-chloro-2-(methyloxy)phenyl]-1H-pyrazol-1-yl}pyridine-3-carboxamide] | ++ (++ means a Ki(cathepsin K)/Ki(calpain) ratio of ≧30) | ++ (++ means a Ki(cathepsin L)/Ki(calpain) ratio of ≧50) | + (+ means 10≦Ki(cathepsin B)/Ki(calpain)<30) | ++ (++ means a Ki(cathepsin S)/Ki(calpain) ratio of ≧100)
4 | NC(=O)C(=O)C(Cc1ccccc1)NC(=O)c1cccnc1-n1cc2c(n1)-c1cc(Cl)ccc1OC2 (stereo not drawn) [Example 140, N-[3-Amino-2,3-dioxo-1-(phenylmethyl)propyl]-2-(8-chlorochromeno[4,3-c]pyrazol-2(4H)-yl)pyridine-3-carboxamide] | ++ (++ means a Ki(cathepsin K)/Ki(calpain) ratio of ≧30) | ++ (++ means a Ki(cathepsin L)/Ki(calpain) ratio of ≧50) | + (+ means 10≦Ki(cathepsin B)/Ki(calpain)<30) | ++ (++ means a Ki(cathepsin S)/Ki(calpain) ratio of ≧100)
5 | COc1ccc2c(c1)OCc1cn(-c3ncccc3C(=O)NC(Cc3ccccc3)C(=O)C(N)=O)nc1-2 (stereo not drawn) [Example 142, N-[3-Amino-2,3-dioxo-1-(phenylmethyl)propyl]-2-[7-(methyloxy)chromeno[4,3-c]pyrazol-2(4H)-yl]pyridine-3-carboxamide] | + (+ means 10≦Ki(cathepsin K)/Ki(calpain)<30) | ++ (++ means a Ki(cathepsin L)/Ki(calpain) ratio of ≧50) | + (+ means 10≦Ki(cathepsin B)/Ki(calpain)<30) | ++ (++ means a Ki(cathepsin S)/Ki(calpain) ratio of ≧100)
6 | Cc1c(Cl)ccc2c1-c1nn(-c3ncccc3C(=O)NC(Cc3ccccc3)C(=O)C(N)=O)cc1CO2 (stereo not drawn) [Example 143, N-[3-Amino-2,3-dioxo-1-(phenylmethyl)propyl]-2-(8-chloro-9-methylchromeno[4,3-c]pyrazol-2(4H)-yl)pyridine-3-carboxamide] | ++ (++ means a Ki(cathepsin K)/Ki(calpain) ratio of ≧30) | ++ (++ means a Ki(cathepsin L)/Ki(calpain) ratio of ≧50) | ++ (++ means a Ki(cathepsin B)/Ki(calpain) ratio of ≧30) | ++ (++ means a Ki(cathepsin S)/Ki(calpain) ratio of ≧100)
